Measurements as given in patent US9381186B2, “Substituted chroman derivatives, medicaments and use in therapy” (MEI Pharma, Inc., priority 2004, dated 2016).
≈ marks a conversion by molar mass, not a printed value. Read-outs that look alike come from different tables or passages of the source.

Tests used:
RK (rabbit kidney) cells = test: Cytotoxicity (MTT proliferation assay) against rabbit kidney cells; format: cell-based
Experimental: (§1) The normal cell line NFF (neonatal foreskin fibroblasts) was a gift from Dr. Peter Parsons (Queensland Institute of Medical Research). RK (rabbit kidney) cells were obtained from Miller Whalley (Macquarie University). Both cell lines were cultured in RPMI supplemented with 10% FCS (CSL, Australia), penicillin (100 U/ml), streptomycin ([…]), L-glutamine (2 mM) and sodium bicarbonate (1.2 g/L), and cultured at 37° C. in a humidified atmosphere of 5% CO2
(§2) IC50 values were determined for each cell line. Cells were seeded in 96-well plates at an appropriate cell density as determined from growth kinetics analysis and cultured for 5 days in the absence and presence of the test compounds. Cell proliferation was assessed after the addition of 20 μl of 3-4,5 dimethylthiazol-2,5-diphenyl tetrazolium bromide (MTT, 2.5 mg/ml in PBS, Sigma) for 3-4 hrs at 37° C. according to manufacturer's instructions. IC50 values were calculated from semi-log plots of % of control proliferation on the y-axis against log dose on the x-axis.

[1] = tested on: NFF (neonatal foreskin fibroblasts); test: Cytotoxicity (MTT proliferation assay) against neonatal foreskin fibroblasts; format: cell-based, Human; details: Homo sapiens, Fibroblast
Experimental: as §1, §2

CP70 = test: MTT proliferation assay, ovarian CP70; format: cell-based
PC3 = test: MTT proliferation assay, prostate PC3; format: cell-based; details: Homo sapiens, PC-3
Experimental: (§3) An cultures were supplemented with 10% FCS (CSL, Australia), penicillin (100 U/ml), streptomycin ([…]), L-glutamine (2 mM) and sodium bicarbonate (1.2 g/L), and cultured at 37° C. in a humidified atmosphere of 5% CO2. All cell lines were purchased from ATCC (Maryland, USA) except where noted.
as §2

MDA-MB-468 = test: MTT proliferation assay, breast MDA-MB-468; format: cell-based; details: Homo sapiens
HTB-138 = test: MTT proliferation assay, glioma HTB-138; format: cell-based
Experimental: as §3, §2

HPAC = test: MTT proliferation assay, pancreatic HPAC; format: cell-based; details: Homo sapiens, Table 2.2
NCI-H23 = test: MTT proliferation assay, lung NCI-H23; format: cell-based; details: Homo sapiens; Lung NCI-H23, Table 2.1; read-out: cytoxicity (IC50)
Experimental: as §3, §2

HT-29 = test: MTT proliferation assay, colorectal HT-29; format: cell-based; details: for IC50: Homo sapiens
Experimental: as §3, §2

MM200 = test: MTT proliferation assay, melanoma MM200; format: cell-based
CCRF-CEM = test: MTT proliferation assay, leukaemia (ALL) CCRF-CEM; format: cell-based; details: Homo sapiens, Table 2.2
Experimental: as §3, §2

NCI-H460 = test: MTT proliferation assay, NSC lung NCI-H460; format: cell-based; details: Homo sapiens; NSC Lung NCI-H460, Table 2.2
Experimental: as §3, §2

[2] = Oral pharmacokinetics in female BALB/c mice; format: in vivo, mouse
Experimental: Compound No. 1 labelled above was prepared as homogenous suspensions in 1% CMC (m:v, water). The formulation was delivered orally by gavage to female BALB/c mice at a dosage of 50 mg/kg. Three animals were allocated to each timepoint (15 min, 30 min, 1 hr, 4 hr and 24 hr). At each respective timepoint, animals were euthanised by cervical dislocation and blood collected. The concentration of free compound was analysed by mass spectroscopy.

[3] = tested on: murine macrophages (RAW 264.7) stimulated with LPS; test: Eicosanoid synthesis in LPS-stimulated RAW 264.7 macrophages; format: cell-based, mouse; details: test compound 10 μM, LPS 50 ng/ml, 16 hrs; negative = inhibition
Experimental: The mouse macrophage cell line RAW 264.7 was cultured in DMEM supplemented with foetal calf serum (FCS), 2 mM glutamine and 50 U/ml penicillin/streptomycin. Subconfluent cells were detached from the flask by gentle scraping and 24-well plates seeded at 5×10^5 cells per well and allowed to adhere for 1 hr. Cells were then treated either test compound at a concentration of 10 μM (in 0.025% DMSO) or vehicle alone, and incubated for 1 hr. LPS 50 ng/ml (LPS—Sigma-Aldrich) was then added. After incubation for 16 hrs, culture media was collected and stored at −80° C. for ecosanoid measurements using enzyme immunometric assays (PGE2 and TXB2—Cayman Chemical).

[4] = Preliminary formulation study, solubility in 20% HPBCD; format: physicochemical; details: aqueous with cosolvent or surfactant or cyclodextrin, preliminary formulation studies
cancer cell lines = test: Proliferation assays, panel of cancer cell lines; format: cell-based; details: CP70, PC3, MDA-MB-468, HTB-138 and lung cancer cell lines

COc1ccc(C2c3ccc(O)c(C)c3OCC2c2ccc(O)cc2)cc1 (stereo not shown) [Compound 1, 3-(4-hydroxyphenyl)-4-(4-methoxyphenyl)-8-methyl-3,4-dihydro-2H-chromen-7-ol]
IC50 (RK (rabbit kidney) cells; Oryctolagus cuniculus, rabbit kidney cells): > 60 µM | IC50 (RK (rabbit kidney) cells; Rabbit Kidney cells): > 60 µM | IC50 ([1]; Neonatal Foreskin Fibroblasts (Human, NFF), read-out: IC50): ~2 µM | IC50 ([1]; non-transformed neonatal foreskin fibroblasts, read-out: IC50): 2 µM | IC50 ([1]; text says rabbit kidney cells, values are those of the NFF line of Table 1, read-out: degree of toxicity (IC50)): 2 µM | IC50 (CP70; Ovarian CCP70, Table 2.1, read-out: cytoxicity (IC50)): 1.7 µM | IC50 (CP70; Ovarian CP70, Table 2.2, read-out: IC50): 1.9 ± 0.4 µM | IC50 (PC3; Prostate PC3, Table 2.1, read-out: cytoxicity (IC50)): 1.7 ± 0.5 µM | IC50 (PC3; Prostate PC3, Table 2.2, read-out: IC50): 1.6 ± 0.8 µM | IC50 (MDA-MB-468; Breast MDA-MB-468, Table 2.1, read-out: cytoxicity (IC50)): 0.6 ± 0.01 µM | IC50 (MDA-MB-468; Breast MDA-MB-468, Table 2.2, read-out: IC50): 1 ± 0.6 µM | IC50 (HTB-138; Glioma HTB-138, Table 2.1, read-out: cytoxicity (IC50)): 1.1 µM | IC50 (HTB-138; Glioma HTB-138, Table 2.2, read-out: IC50): 1.16 µM | IC50 (HPAC): 51.7 ± 8 µM | IC50 (NCI-H23): 1.9 ± 0.1 µM | IC50 (HT-29; Colorectal HT-29, Table 2.1, read-out: cytoxicity (IC50)): 17.4 µM | IC50 (HT-29; Colorectal HT-29, Table 2.2, read-out: IC50): 15.7 ± 2.4 µM | activity in words (HT-29; colorectal cell line HT-29): moderately active | IC50 (MM200; Melanoma MM200, Table 2.1, read-out: cytoxicity (IC50)): 1 ± 0.01 µM | IC50 (MM200; Melanoma MM200, Table 2.2, read-out: IC50): 0.78 ± 0.23 µM | IC50 (CCRF-CEM): 1.6 ± 1.2 µM | IC50 (NCI-H460): 1.2 ± 0.45 µM | concentration at 1 h ([2]; female, BALB/c, mouse, faeces, po, 50 mg/kg, oral 50 mg/kg, Time 1 (head prints days), read-out: Faeces Free): 1060 ± 913 µM | concentration at 4 h ([2]; female, BALB/c, mouse, faeces, po, 50 mg/kg, oral 50 mg/kg, Time 4 (head prints days), read-out: Faeces Free): 1790 ± 625 µM | concentration at 24 h ([2]; female, BALB/c, mouse, faeces, po, 50 mg/kg, oral 50 mg/kg, Time 24 (head prints days), read-out: Faeces Free): 800 ± 670 µM | half-life ([2]; female, BALB/c, mouse, serum, 50 mg/kg, oral, sera, read-out: half life): ~30 min | concentration at 0.25 h ([2]; female, BALB/c, mouse, serum, po, 50 mg/kg, oral 50 mg/kg, Time 0.25 (head prints days), read-out: Serum Free): 27.3 ± 23 µM | concentration at 0.5 h ([2]; female, BALB/c, mouse, serum, po, 50 mg/kg, oral 50 mg/kg, Time 0.5 (head prints days), read-out: Serum Free): 8.2 ± 6.5 µM | concentration at 1 h ([2]; female, BALB/c, mouse, serum, po, 50 mg/kg, oral 50 mg/kg, Time 1 (head prints days), read-out: Serum Free): 2.4 ± 1.6 µM | concentration at 4 h ([2]; female, BALB/c, mouse, serum, po, 50 mg/kg, oral 50 mg/kg, Time 4 (head prints days), read-out: Serum Free): 0.3 ± 0.02 µM | concentration at 24 h ([2]; female, BALB/c, mouse, serum, po, 50 mg/kg, oral 50 mg/kg, Time 24 (head prints days), read-out: Serum Free): 0.05 ± 0.02 µM | concentration at 0.25 h ([2]; female, BALB/c, mouse, serum, po, 50 mg/kg, oral, Time 0.25, Table 4, read-out: Free concentration, comparative oral pharmacokinetic data): 27.3 ± 23 µM | concentration at 0.5 h ([2]; female, BALB/c, mouse, serum, po, 50 mg/kg, oral, Time 0.5, Table 4, read-out: Free concentration, comparative oral pharmacokinetic data): 8.2 ± 6.5 µM | concentration at 1 h ([2]; female, BALB/c, mouse, serum, po, 50 mg/kg, oral, Time 1, Table 4, read-out: Free concentration, comparative oral pharmacokinetic data): 2.4 ± 1.6 µM | concentration at 4 h ([2]; female, BALB/c, mouse, serum, po, 50 mg/kg, oral, Time 4, Table 4, read-out: Free concentration, comparative oral pharmacokinetic data): 0.33 ± 0.02 µM | concentration at 24 h ([2]; female, BALB/c, mouse, serum, po, 50 mg/kg, oral, Time 24, Table 4, read-out: Free concentration, comparative oral pharmacokinetic data): 0.05 ± 0.02 µM | concentration at 30 min ([2]; female, BALB/c, mouse, serum, po, 50 mg/kg, oral, after 30 min, read-out: free concentration in sera): 8.2 µM | concentration at 1 hr ([2]; female, BALB/c, mouse, serum, po, 50 mg/kg, oral, after 1 hr, read-out: free concentration in sera): 2.4 µM | concentration at 0.25 h ([2]; female, BALB/c, mouse, urine, po, 50 mg/kg, oral 50 mg/kg, Time 0.25 (head prints days), read-out: Urine Free): 17.1 ± 7.2 µM | concentration at 0.5 h ([2]; female, BALB/c, mouse, urine, po, 50 mg/kg, oral 50 mg/kg, Time 0.5 (head prints days), read-out: Urine Free): 22.1 ± 1.5 µM | concentration at 1 h ([2]; female, BALB/c, mouse, urine, po, 50 mg/kg, oral 50 mg/kg, Time 1 (head prints days), read-out: Urine Free): 26.3 ± 2.2 µM | concentration at 4 h ([2]; female, BALB/c, mouse, urine, po, 50 mg/kg, oral 50 mg/kg, Time 4 (head prints days), read-out: Urine Free): 1.1 ± 0.1 µM | concentration at 24 h ([2]; female, BALB/c, mouse, urine, po, 50 mg/kg, oral 50 mg/kg, Time 24 (head prints days), read-out: Urine Free): 0.1 ± 0.1 µM | share of compound recovered from faeces present in free form ([2]; oral): ~100% | Cmax of free compound in sera ([2]; oral, 15 minutes post administration): 27.3 µM | free concentration relative to phenoxodiol ([2]; oral, after 15 and 30 min): 10-20 fold | concentration relative to phenoxodiol ([2]; oral, after 1 hr): Approximately 2 fold | share present as the free entity in urine ([2]; oral, at any time-point): ≤ 2% | Percentage change in PGE2 synthesis compared with vehicle [3]: −53.8% | Percentage change in TXB2 synthesis compared with vehicle [3]: −15.9% | solubility [4]: 11.2 mg/mL (≈ 30.9 mM) | activity relative to phenoxodiol (IC50 comparison) (cancer cell lines): 2-10 fold
